Assay results: article PMC11394424, “The RAL Small G Proteins Are Clinically Relevant Targets in Triple Negative Breast Cancer” (Cancers, 2024)

Molecular target: T1, RALA (Homo sapiens, UniProt P11233)
T1 construct: recombinant RALA, site-specifically biotinylated on the N-terminus
T1 sequence (P11233 1-203): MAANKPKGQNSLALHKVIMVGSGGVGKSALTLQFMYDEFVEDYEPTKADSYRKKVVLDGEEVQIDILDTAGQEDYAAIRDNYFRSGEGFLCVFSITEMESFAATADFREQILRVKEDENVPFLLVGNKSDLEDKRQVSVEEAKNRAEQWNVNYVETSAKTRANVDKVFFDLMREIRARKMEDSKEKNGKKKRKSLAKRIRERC
Assay: SPR (Biacore 8K, steady-state affinity, biotinylated RALA on SA chip)
Format: binding

OSURALi
Kd: 948 nM
